For series [1] the following is noted: brain homogenate.
Series [2] concerns the target T1, Bovine Serum Albumin (BSA) (Bos taurus, UniProt P02769). Conditions: isolated protein.
A further series concerns MDCKII-MDR1 cells. To be noted: dog, 29 h, 1 μM, pH 7.5.
Series [3] has as its system P-gp (human MDR1). In words: in vitro. To be noted: dog, MDCK-MDR1, pH 7.4.
Another series in a line: in vitro. Conditions: Göttingen, minipig, brain homogenate, pH 7.4.
Series [4] addresses T1, Bovine Serum Albumin (BSA). Description: in vitro. Conditions: isolated protein.
In series [5] the test system is P-gp (human MDR1). In words: in vitro. Conditions: dog.
The conditions of series [6]: minipig, in vivo; cited from earlier work.

Some results are limits rather than exact numbers.

T1 sequence (P02769 25-607): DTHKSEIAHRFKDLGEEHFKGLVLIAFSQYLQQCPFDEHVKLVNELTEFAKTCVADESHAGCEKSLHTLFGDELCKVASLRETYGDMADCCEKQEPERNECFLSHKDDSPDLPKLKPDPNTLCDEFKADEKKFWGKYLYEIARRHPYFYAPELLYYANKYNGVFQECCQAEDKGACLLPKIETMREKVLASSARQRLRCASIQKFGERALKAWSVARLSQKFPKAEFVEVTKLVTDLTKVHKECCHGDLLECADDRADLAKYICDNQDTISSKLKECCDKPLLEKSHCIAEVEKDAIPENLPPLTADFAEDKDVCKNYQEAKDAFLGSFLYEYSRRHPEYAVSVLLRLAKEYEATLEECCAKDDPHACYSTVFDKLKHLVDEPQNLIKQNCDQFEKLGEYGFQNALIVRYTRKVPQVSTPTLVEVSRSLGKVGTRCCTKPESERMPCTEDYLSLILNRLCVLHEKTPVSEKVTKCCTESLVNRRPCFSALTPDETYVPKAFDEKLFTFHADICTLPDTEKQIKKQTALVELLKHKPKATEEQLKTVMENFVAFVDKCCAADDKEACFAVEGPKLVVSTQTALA

Take `Cc1cc(=O)n(-c2ccccc2)n1C` [Antipyrine, antipyrine]: the “Predicted fu (%) Brain (D = 20)” value in series [1] was > 100%. Also, the “Predicted fu (%) BSA 35 μM (D = 20)” value in series [2] is 99.9%. Moreover, in the series with MDCKII-MDR1 cells, the “Kp,uu,brain in Vitro Uni-L (Det. fu)” value came to 1.05. The “Kp,uu,brain in Vitro Uni-L (Pre.fu)” value in the series on MDCKII-MDR1 cells is 1.24. In the series with P-gp (human MDR1) [3], this compound gave an apparent permeability from basolateral to apical (Papp B→A) at 60 min, 0.5 μM of 48 ± 3 ×10⁻⁶ cm/s. Further, the efflux ratio at 60 min, 0.5 μM in the series on P-gp (human MDR1) [3] was determined as 1.2. Moreover, the results for the fraction unbound at 5 h, 1 μM (in “in vitro”; in series [4]) were 0.843 ± 0.042 and > 1, respectively. Besides, the Kp at 29 h, 1 μM with P-gp (human MDR1) [5] (MDCK-MDR1, pH 7.5, in vitro determined Kp,brain Bi-L) was 1.2; in the series on P-gp (human MDR1) [5] (MDCK-MDR1, pH 7.5, in vitro determined Kp,brain Uni-L), 1.2. In addition, the recovery at 29 h, 1 μM in the series with P-gp (human MDR1) [5] (pH 7.5, Recovery Bi-L) worked out at 77%; in the series with P-gp (human MDR1) [5] (pH 7.5, Recovery Uni-L), 77%. Moreover, in series [6], the “Kp,uu,brain in vivo” value is 0.80.

One may read the Papp B→A as the apparent permeability from the basolateral to the apical side of a cell layer. A word on the efflux ratio: it is the permeability from basolateral to apical divided by that in the opposite direction, in the common usage. One may read the fraction unbound as the share of the substance not bound to proteins or other matrix.

The record behind these values is PMC10809502, “Application of a new MDCKII-MDR1 cell model to measure the extent of drug distribution in vitro at equilibrium for prediction of in vivo unbound brain-to-plasma drug distribution” (Fluids and Barriers of the CNS, 2024).
